Measured values: the supplement of paper PMC13380429
Counter-ions that a name gives are not always drawn.

Legend:
Conditions in all cases: 72 h
HepG2 [1] = assay: drug sensitivity score (DSS) for viability; higher = more toxic; extreme values may be limits of the assay
Vero E6 [2] = assay: as above
Caco-2 [3] = assay: as above
U2OS [4] = assay: as above
Calu-3 [5] = assay: as above
HepG2 [6] = assay: relative viability EC50 (midpoint between 100% and the lowest measured viability); higher = less toxic
Vero E6 [7] = assay: as above
Caco-2 [8] = assay: as above
U2OS [9] = assay: as above
Calu-3 [10] = assay: as above
HepG2 [11] = assay: cell viability relative to DMSO; higher = less toxic
Vero E6 [12] = assay: as above
Caco-2 [13] = assay: as above
U2OS [14] = assay: as above
Calu-3 [15] = assay: as above

Row | Compound | drug sensitivity score (HepG2 [1]) | drug sensitivity score (Vero E6 [2]) | drug sensitivity score (Caco-2 [3]) | drug sensitivity score (U2OS [4]) | drug sensitivity score (Calu-3 [5]) | relative viability EC50 (HepG2 [6]) | relative viability EC50 (Vero E6 [7]) | relative viability EC50 (Caco-2 [8]) | relative viability EC50 (U2OS [9]) | relative viability EC50 (Calu-3 [10]) | cell viability (HepG2 [11]; 1 nM) | cell viability (HepG2 [11]; 10 nM) | cell viability (HepG2 [11]; 100 nM) | cell viability (HepG2 [11]; 1000 nM) | cell viability (HepG2 [11]; 10000 nM) | cell viability (Vero E6 [12]; 1 nM) | cell viability (Vero E6 [12]; 10 nM) | cell viability (Vero E6 [12]; 100 nM) | cell viability (Vero E6 [12]; 1000 nM) | cell viability (Vero E6 [12]; 10000 nM) | cell viability (Caco-2 [13]; 1 nM) | cell viability (Caco-2 [13]; 10 nM) | cell viability (Caco-2 [13]; 100 nM) | cell viability (Caco-2 [13]; 1000 nM) | cell viability (Caco-2 [13]; 10000 nM) | cell viability (U2OS [14]; 1 nM) | cell viability (U2OS [14]; 10 nM) | cell viability (U2OS [14]; 100 nM) | cell viability (U2OS [14]; 1000 nM) | cell viability (U2OS [14]; 10000 nM) | cell viability (Calu-3 [15]; 1 nM) | cell viability (Calu-3 [15]; 10 nM) | cell viability (Calu-3 [15]; 100 nM) | cell viability (Calu-3 [15]; 1000 nM) | cell viability (Calu-3 [15]; 10000 nM)
1 | CNC(=O)c1cccc(-c2ccc3c(N4CCOC[C@@H]4C)nc(N4CCOC[C@@H]4C)nc3n2)c1 [AZD2014] | 13 | 7.5 | 13.3 | 8.5 | 16.1 | 0.348 µM | 0.762 µM | 0.235 µM | 1.2 µM | 0.154 µM | 94% | 95.4% | 86.4% | 39% | 22% | 94.7% | 99.4% | 85.4% | 70.1% | 37.2% | 106% | 98.5% | 83.8% | 38.8% | 30.6% | 95.8% | 94.9% | 96.7% | 66.7% | 19.4% | 89.4% | 87.5% | 74.3% | 27.7% | 22.9%
2 | COc1cc(CCc2cc(NC(=O)c3ccc(N4CC(C)NC(C)C4)cc3)n[nH]2)cc(OC)c1 (stereo not given) [AZD4547] | 5 | 0 | 0.2 | 4.5 | 0 | 1.99 µM | > 10 µM | > 10 µM | 1.61 µM | > 10 µM | 95.7% | 105% | 87.3% | 90.7% | 37% | 95.7% | 98.1% | 92.5% | 96.2% | 100% | 87.5% | 93.8% | 99.3% | 104% | 80.4% | 101% | 94.8% | 95.2% | 88.2% | 49.5% | 101% | 107% | 93.8% | 99.4% | 99.8%
3 | CC(C)C[C@@H]1NC(=O)[C@@H](C(C)C)NC(=O)[C@@H]2CCCN2C(=O)[C@@H](CC(=O)O)NC(=O)[C@@H](Cc2c[nH]c3ccccc23)NC1=O [BQ-123] | 0 | 0 | 0 | 0 | 0 | > 10 µM | > 10 µM | > 10 µM | > 10 µM | > 10 µM | 95.4% | 100% | 98% | 110% | 108% | 96.2% | 102% | 92.2% | 99.7% | 104% | 96.4% | 93.2% | 103% | 91.4% | 109% | 99.7% | 96% | 101% | 95% | 101% | 93.7% | 94.5% | 95.8% | 90.6% | 100%
4 | N[C@H](Cc1ccccc1)C(=O)O [D-phenylalanine] | 0 | 0 | 0 | 0 | 0 | > 10 µM | > 10 µM | > 10 µM | > 10 µM | > 10 µM | 99.7% | 109% | 90.4% | 105% | 100% | 108% | 100% | 104% | 101% | 96.1% | 94.6% | 101% | 90.8% | 95.8% | 93.8% | 95.6% | 101% | 96.5% | 95.2% | 99.8% | 98.3% | 95.2% | 111% | 102% | 105%
5 | Nc1ncnc2c1ncn2[C@H]1O[C@@H](C(=O)N2CCN(CC(=O)Nc3cccc4c3CNC4=O)CC2)[C@H](O)[C@@H]1O [EB-47] | 0 | 0 | 0 | 0 | 0.1 | > 10 µM | > 10 µM | > 10 µM | > 10 µM | > 10 µM | 102% | 96.3% | 103% | 102% | 93.9% | 102% | 98.6% | 94.7% | 92.4% | 97.6% | 97.8% | 103% | 104% | 94.8% | 92.6% | 99.4% | 107% | 102% | 100% | 96.7% | 92% | 102% | 91.3% | 104% | 85.7%
6 | CCSC(=N)N [EIT-hydrobromide] | 0 | 0 | 0 | 0 | 0 | > 10 µM | > 10 µM | > 10 µM | > 10 µM | > 10 µM | 96.9% | 90% | 94.3% | 102% | 103% | 94.2% | 99.4% | 96.9% | 95.8% | 105% | 97.7% | 98.1% | 91.1% | 102% | 107% | 94.2% | 101% | 97.5% | 100% | 103% | 108% | 96.8% | 96.9% | 104% | 103%
7 | CNC(=O)c1cc2c(cn1)[nH]c1ccccc12 [FG-7142] | 0 | 0 | 0.8 | 0 | 0 | > 10 µM | > 10 µM | > 10 µM | > 10 µM | > 10 µM | 101% | 88.4% | 107% | 96.3% | 110% | 102% | 95.7% | 98.2% | 100% | 101% | 97.7% | 104% | 92.2% | 89.8% | 88.2% | 98.2% | 100% | 96.9% | 100% | 96.9% | 96.9% | 91.8% | 98.2% | 100% | 103%
8 | CC(=O)N1CCC(NC(=O)c2ccc(F)cc2)CC1 [FK-962] | 0 | 0 | 0 | 0 | 0 | > 10 µM | > 10 µM | > 10 µM | > 10 µM | > 10 µM | 107% | 104% | 134% | 92.6% | 108% | 98.1% | 87.7% | 98.3% | 88.5% | 94.3% | 101% | 97.4% | 104% | 108% | 114% | 97.8% | 97.9% | 98.6% | 103% | 94.4% | 108% | 98.7% | 101% | 99.5% | 95.8%
9 | c1ccc([C@@H]2C[C@H]2NC2CCNCC2)cc1 [GSK-LSD-1] | 0 | 0 | 0 | 0 | 0 | > 10 µM | > 10 µM | > 10 µM | > 10 µM | > 10 µM | 92.6% | 96.4% | 93% | 98.8% | 97.2% | 97.1% | 99.4% | 96.4% | 101% | 95.6% | 98.5% | 95.2% | 96.5% | 87.1% | 92.2% | 102% | 98.1% | 104% | 94.6% | 104% | 102% | 88% | 96.8% | 95.8% | 93.4%
10 | CC(C)[C@@H](CN1CC[C@@](C)(c2cccc(O)c2)[C@@H](C)C1)NC(=O)[C@H]1Cc2ccc(O)cc2CN1 [JDTic] | 0 | 0 | 0 | 0 | 0.2 | > 10 µM | > 10 µM | > 10 µM | > 10 µM | > 10 µM | 100% | 95.6% | 99.4% | 101% | 99.6% | 99.4% | 98% | 97.6% | 95.1% | 102% | 91.9% | 95.2% | 96.7% | 93.3% | 98.5% | 96.7% | 104% | 95.5% | 101% | 102% | 103% | 103% | 95% | 109% | 83.2%
11 | COC(=O)[C@@H](N)CCCNC(=N)N[N+](=O)[O-] [L-NAME] | 0 | 0 | 0 | 0 | 0 | > 10 µM | > 10 µM | > 10 µM | > 10 µM | > 10 µM | 97.4% | 104% | 94.5% | 95.4% | 116% | 97.7% | 96.6% | 99.9% | 98.6% | 105% | 94.6% | 97.3% | 94.4% | 97.8% | 106% | 101% | 97.9% | 103% | 101% | 110% | 96% | 106% | 99.6% | 94.7% | 114%
12 | CC(=O)NCCNc1cc(Cl)nn2c(-c3cccc(S(=O)(=O)N(C)C)c3)c(C)nc12 [MI-14] | 4.4 | 0 | 0.9 | 0 | 0.8 | > 10 µM | > 10 µM | > 10 µM | > 10 µM | > 10 µM | 102% | 89.4% | 87.4% | 77.2% | 78.8% | 95.6% | 98% | 96.5% | 93.2% | 93.5% | 99.1% | 92.2% | 99.5% | 93.1% | 83.3% | 98.8% | 101% | 99.6% | 98.2% | 89.5% | 99.1% | 96.2% | 98.2% | 102% | 75.8%
